{"source": "patent US20240173440A1", "about": "“HIGH PURITY COPPER RADIOPHARMACEUTICAL COMPOSITIONS AND DIAGNOSTIC AND THERAPEUTIC USES THEREOF” (Nuclidium AG, priority 2022, published 2024)", "key": {"[1]": {"tested_on": "HT-1080.hFAP cells", "assay": "In vitro cellular uptake (cell surface and internalized fractions) in HT-1080.hFAP cells", "assay_type": "cell-based, human", "protocol": "(§1) The cellular uptake was studied in vitro using intact cells seeded in 6-well plates overnight. On the day of the experiment, the cells were washed and incubated with each of the exemplified [^61Cu]Cu-radiotracer at different time points, either alone or in the presence of a blocking agent to distinguish between specific and non-specific uptake. At each investigated time point, the medium containing the unbound (free) radiotracer was removed, followed by two washing steps with ice-cold phosphate-buffered saline. The cells were then treated 2×5 min with ice-cold glycine solution (0.05 M, pH 2.8) to detach the cell surface-bound radiotracer (acid released). Afterwards, the cells containing the internalized radiotracer were detached with 1 M NaOH at 37° C. and collected for measurement. The amount of specific cell surface-bound and internalized radiotracer is expressed as percentage of the total applied activity, after subtracting the non-specific values.\nas §1, with “^61Cu-labeled conjugate” for “of the exemplified [^61Cu]Cu-radiotracer”\nThe cells were then preconditioned in 360 μL of assay medium (MEM medium without supplements) at 37° C. for 60 min. 40 μL of a 2 nM solution of ^61Cu-labeled radioligand was added and the cells were incubated at 37° C. The cellular uptake was interrupted at different time points (15 min, 1 hour and 4 hours), by washing twice with ice-cold PBS. Cell surface-bound radioligand was obtained by washing cells twice with ice-cold glycine buffer (pH 2.8), followed by a collection of the internalized fraction with 1 M NaOH. The activity in each fraction was measured in a γ-counter (Cobra II)."}, "[2]": {"assay": "Remaining PET activity in the mouse body 4h p.i.", "assay_type": "in vivo", "settings": "mice", "protocol": "PET/CT Imaging: Mice bearing FAP-positive and FAP-negative xenografts were injected intravenously with ^61Cu-labeled radioligands of the present disclosure or ^61Cu-NODAGA-FAPI-46 (100 μL/[…]/6-12 MBq). […] The mice were euthanized by CO2 at 4 hours p.i., and static PET scans were acquired for 30 min.\nRemaining PET activity in the mouse body 4h p.i. prior to the 4h scan was determined (Table 36)."}, "[3]": {"tested_on": "HT-1080.hFAP and HT-1080.wt xenografts", "assay": "Quantitative biodistribution in HT-1080.hFAP and HT-1080.wt xenografted mice", "assay_type": "in vivo", "settings": "for Biodistribution HT-1080.wt: FAP-negative tumor; for Biodistribution HT-1080.hFAP: FAP-positive tumor"}, "[4]": {"target": "hFAP (Homo sapiens (Human), UniProt Q12884)", "sequence (Q12884 whole entry)": "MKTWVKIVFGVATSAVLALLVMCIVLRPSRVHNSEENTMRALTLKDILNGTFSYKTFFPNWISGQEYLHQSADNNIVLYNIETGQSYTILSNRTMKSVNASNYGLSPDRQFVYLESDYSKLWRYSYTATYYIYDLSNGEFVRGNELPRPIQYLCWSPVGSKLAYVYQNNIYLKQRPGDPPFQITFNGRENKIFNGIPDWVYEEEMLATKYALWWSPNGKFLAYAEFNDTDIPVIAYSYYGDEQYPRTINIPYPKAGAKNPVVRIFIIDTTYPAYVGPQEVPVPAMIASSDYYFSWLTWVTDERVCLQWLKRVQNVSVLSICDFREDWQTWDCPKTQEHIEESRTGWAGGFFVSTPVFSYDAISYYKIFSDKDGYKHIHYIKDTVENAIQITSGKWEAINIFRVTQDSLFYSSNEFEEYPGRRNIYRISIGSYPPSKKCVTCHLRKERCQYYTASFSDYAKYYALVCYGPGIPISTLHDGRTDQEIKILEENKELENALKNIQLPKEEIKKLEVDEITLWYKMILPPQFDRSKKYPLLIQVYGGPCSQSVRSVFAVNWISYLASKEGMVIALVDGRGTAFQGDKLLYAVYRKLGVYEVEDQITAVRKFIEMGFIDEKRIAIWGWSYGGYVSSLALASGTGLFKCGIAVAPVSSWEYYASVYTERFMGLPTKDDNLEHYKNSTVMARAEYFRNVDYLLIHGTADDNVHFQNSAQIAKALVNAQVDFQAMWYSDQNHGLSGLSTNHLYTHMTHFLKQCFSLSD", "assay": "Saturation binding on isolated HEK-293.hFAP cell membranes", "set-up": "Bmax: unit not given here", "settings": "37° C.", "summary_of_the_method": "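Membranes of HEK-293 cells expressing human FAP (10 μg protein/well) incubated with radioligand in 20 mM HEPES pH 7.4 with MgCl2, 0.2% BSA and protease inhibitors. Nonspecific binding defined with 0.1 mM FAPI-46. KD and Bmax derived from bound fraction versus equilibrium radioligand concentration.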"}, "[5]": {"settings": "1 h p.i., HT-1080.hFAP and HT-1080.wt xenografts"}, "[6]": {"settings": "4 h p.i., HT-1080.hFAP and HT-1080.wt xenografts"}}, "data": [{"smiles": "CN(C(=O)CCC(=O)N1CCN(C(=O)CC[C@H](C(=O)O)N2CCN3CCN(CC2)CC(=O)[O][61Cu][O]C(=O)C3)CC1)c1ccc2nccc(C(=O)NCC(=O)N3CC(F)(F)C[C@H]3C#N)c2c1", "note": "[[^61Cu]Cu-NODAGA-F4]", "values": [{"measurement": "Cell surface fraction", "setting": "[1]; 15 min, HT-1080.hFAP cells, specific uptake (minus HT-1080.wt)", "result": "1.0 ± 0.7 % of the applied activity"}, {"measurement": "Cell surface fraction", "setting": "[1]; 240 min, HT-1080.hFAP cells, specific uptake (minus HT-1080.wt)", "result": "0.9 ± 0.6 % of the applied activity"}, {"measurement": "Cell surface fraction", "setting": "[1]; Time Point 15 min, 0.2 nM", "result": "1.0 ± 0.7 percentage of the total applied activity"}, {"measurement": "Cell surface fraction", "setting": "[1]; Time Point 240 min, 0.2 nM", "result": "0.9 ± 0.6 percentage of the total applied activity"}, {"measurement": "retention in the body (remaining PET activity)", "setting": "[2]", "result": "lowest value"}, {"measurement": "Biodistribution Heart", "setting": "[3]; 1 hour p.i.", "result": "0.6 ± 0.0", "unit": "% I.A./g"}, {"measurement": "Biodistribution Intestine", "setting": "[3]; 1 hour p.i.", "result": "0.5 ± 0.2", "unit": "% I.A./g"}, {"measurement": "Biodistribution Liver", "setting": "[3]; 1 hour p.i.", "result": "0.6 ± 0.1", "unit": "% I.A./g"}, {"measurement": "Biodistribution Lung", "setting": "[3]; 1 hour p.i.", "result": "0.9 ± 0.1", "unit": "% I.A./g"}, {"measurement": "Biodistribution Muscle", "setting": "[3]; 1 hour p.i.", "result": "0.8 ± 0.2", "unit": "% I.A./g"}, {"measurement": "Biodistribution Spleen", "setting": "[3]; 1 hour p.i.", "result": "0.4 ± 0.0", "unit": "% I.A./g"}, {"measurement": "Biodistribution Stomach", "setting": "[3]; 1 hour p.i.", "result": "0.5 ± 0.0", "unit": "% I.A./g"}, {"measurement": "Biodistribution Adrenal", "setting": "[3]; [5]", "result": "1.1 ± 0.2", "unit": "% IA/g"}, {"measurement": "Biodistribution Blood", "setting": "[3]; [5]", "result": "1.4 ± 0.1", "unit": "% IA/g"}, {"measurement": "Biodistribution Femur", "setting": "[3]; [5]", "result": "3.2 ± 0.8", "unit": "% IA/g"}, {"measurement": "Biodistribution HT1080.hFAP (FAP-positive tumor)", "setting": "[3]; [5]", "result": "7.4 ± 1.6", "unit": "% IA/g"}, {"measurement": "Biodistribution HT1080.wt (FAP-negative tumor)", "setting": "[3]; [5]", "result": "1.7 ± 0.2", "unit": "% IA/g"}, {"measurement": "Biodistribution Heart", "setting": "[3]; [5]", "result": "0.6 ± 0.0", "unit": "% IA/g"}, {"measurement": "Biodistribution Intestine", "setting": "[3]; [5]", "result": "0.5 ± 0.2", "unit": "% IA/g"}, {"measurement": "Biodistribution Kidney", "setting": "[3]; [5]", "result": "1.8 ± 0.2", "unit": "% IA/g"}, {"measurement": "Biodistribution Liver", "setting": "[3]; [5]", "result": "0.6 ± 0.1", "unit": "% IA/g"}, {"measurement": "Biodistribution Lung", "setting": "[3]; [5]", "result": "0.9 ± 0.1", "unit": "% IA/g"}, {"measurement": "Biodistribution Muscle", "setting": "[3]; [5]", "result": "0.8 ± 0.2", "unit": "% IA/g"}, {"measurement": "Biodistribution Pancreas", "setting": "[3]; [5]", "result": "1.1 ± 0.1", "unit": "% IA/g"}, {"measurement": "Biodistribution Spleen", "setting": "[3]; [5]", "result": "0.4 ± 0.0", "unit": "% IA/g"}, {"measurement": "Biodistribution Stomach", "setting": "[3]; [5]", "result": "0.5 ± 0.0", "unit": "% IA/g"}, {"measurement": "Biodistribution Adrenal", "setting": "[3]; 4 hours p.i.", "result": "0.5 ± 0.1", "unit": "% I.A./g"}, {"measurement": "Biodistribution Blood", "setting": "[3]; 4 hours p.i.", "result": "0.4 ± 0.1", "unit": "% I.A./g"}, {"measurement": "Biodistribution Heart", "setting": "[3]; 4 hours p.i.", "result": "0.2 ± 0.0", "unit": "% I.A./g"}, {"measurement": "Biodistribution Intestine", "setting": "[3]; 4 hours p.i.", "result": "0.3 ± 0.1", "unit": "% I.A./g"}, {"measurement": "Biodistribution Liver", "setting": "[3]; 4 hours p.i.", "result": "0.4 ± 0.0", "unit": "% I.A./g"}, {"measurement": "Biodistribution Lung", "setting": "[3]; 4 hours p.i.", "result": "0.3 ± 0.0", "unit": "% I.A./g"}, {"measurement": "Biodistribution Muscle", "setting": "[3]; 4 hours p.i.", "result": "0.4 ± 0.1", "unit": "% I.A./g"}, {"measurement": "Biodistribution Pancreas", "setting": "[3]; 4 hours p.i.", "result": "0.4 ± 0.1", "unit": "% I.A./g"}, {"measurement": "Biodistribution Spleen", "setting": "[3]; 4 hours p.i.", "result": "0.2 ± 0.0", "unit": "% I.A./g"}, {"measurement": "Biodistribution Stomach", "setting": "[3]; 4 hours p.i.", "result": "0.2 ± 0.0", "unit": "% I.A./g"}, {"measurement": "Biodistribution Adrenal", "setting": "[3]; [6]", "result": "0.5 ± 0.1", "unit": "% IA/g"}, {"measurement": "Biodistribution Blood", "setting": "[3]; [6]", "result": "0.4 ± 0.1", "unit": "% IA/g"}, {"measurement": "Biodistribution Femur", "setting": "[3]; [6]", "result": "1.2 ± 0.1", "unit": "% IA/g"}, {"measurement": "Biodistribution HT1080.hFAP (FAP-positive tumor)", "setting": "[3]; [6]", "result": "3.0 ± 0.8", "unit": "% IA/g"}, {"measurement": "Biodistribution HT1080.wt (FAP-negative tumor)", "setting": "[3]; [6]", "result": "0.6 ± 0.0", "unit": "% IA/g"}, {"measurement": "Biodistribution Heart", "setting": "[3]; [6]", "result": "0.2 ± 0.0", "unit": "% IA/g"}, {"measurement": "Biodistribution Intestine", "setting": "[3]; [6]", "result": "0.3 ± 0.1", "unit": "% IA/g"}, {"measurement": "Biodistribution Kidney", "setting": "[3]; [6]", "result": "1.1 ± 0.1", "unit": "% IA/g"}, {"measurement": "Biodistribution Liver", "setting": "[3]; [6]", "result": "0.4 ± 0.0", "unit": "% IA/g"}, {"measurement": "Biodistribution Lung", "setting": "[3]; [6]", "result": "0.3 ± 0.0", "unit": "% IA/g"}, {"measurement": "Biodistribution Muscle", "setting": "[3]; [6]", "result": "0.4 ± 0.1", "unit": "% IA/g"}, {"measurement": "Biodistribution Pancreas", "setting": "[3]; [6]", "result": "0.4 ± 0.1", "unit": "% IA/g"}, {"measurement": "Biodistribution Spleen", "setting": "[3]; [6]", "result": "0.2 ± 0.0", "unit": "% IA/g"}, {"measurement": "Biodistribution Stomach", "setting": "[3]; [6]", "result": "0.2 ± 0.0", "unit": "% IA/g"}, {"measurement": "Biodistribution HT-1080.wt", "setting": "[3]; 1 hour p.i.", "result": "1.7 ± 0.2", "unit": "% I.A./g"}, {"measurement": "Biodistribution HT-1080.wt", "setting": "[3]; 4 hours p.i.", "result": "0.6 ± 0.0", "unit": "% I.A./g"}, {"measurement": "Biodistribution HT-1080.hFAP", "setting": "[3]; 1 hour p.i.", "result": "7.4 ± 1.6", "unit": "% I.A./g"}, {"measurement": "Biodistribution HT-1080.hFAP", "setting": "[3]; 4 hours p.i.", "result": "3.0 ± 0.8", "unit": "% I.A./g"}, {"measurement": "accumulation in tumor and target-positive tissues", "setting": "[3]; HT-1080.hFAP and HT-1080.wt xenografts", "result": "high accumulation in FAP-positive (HT-1080.hFAP) tumor and murine-FAP-positive tissues"}, {"measurement": "Bmax", "setting": "[4]", "result": "9.1-9.8"}]}]}
